Where two headings read alike, the source gives them in different places.
What was measured:
[1] = system: Bovine Viral Diarrhea virus (BVDV); assay: microbe, parasite or virus in culture; type: cell-based
YFV-17D = assay: microbe, parasite or virus in culture; type: cell-based, Yellow fever virus vaccine strain 17D
[2] = system: PICO (Cosxackie B1 and Polio Sabin); assay: organism not typed; type: cell-based; conditions: Vero, read-out: Comparative Antiviral Activity EC50 PICO
VSV = assay: microbe, parasite or virus in culture; type: cell-based; conditions: Vesicular stomatitis virus, read-out: Comparative Antiviral Activity EC50 VSV
HIV-1 = assay: Comparative antiviral activity (EC50), HIV-1; type: cell-based; conditions: Human immunodeficiency virus 1; Table 11
in vitro [3] = assay: in vitro
[4] = system: Human bone marrow cells (CFU-GM); assay: Human bone marrow toxicity, CFU-GM clonogenic assay; type: cell-based; conditions: read-out: IC50 CFU-GM
Description: (§1) Human bone marrow cells were collected from normal healthy volunteers and the mononuclear population was separated by Ficoll-Hypaque gradient centrifugation as described previously by Sommadossi J-P, Carlisle R. “Toxicity of 3′-azido-3′-deoxythymidine and 9-(1,3-dihydroxy-2-propoxymethyl)guanine for normal human hematopoietic progenitor cells in vitro” Antimicrobial Agents and Chemotherapy 1987; 31:452-454; and Sommadossi J-P, Schinazi R F, Chu C K, Xie M-Y. “Comparison of cytotoxicity of the (−)- and (+)-enantiomer of 2′,3′-dideoxy-3′-thiacytidine in normal human bone marrow progenitor cells” Biochemical Pharmacology 1992; 44:1921-1925. The culture assays for CFU-GM and BFU-E were performed using a bilayer soft agar or methylcellulose method. Drugs were diluted in tissue culture medium and filtered. After 14 to 18 days at 37° C. in a humidified atmosphere of 5% CO2 in air, colonies of greater than 50 cells were counted using an inverted microscope. The results in Table 4 are presented as the percent inhibition of colony formation in the presence of drug compared to solvent control cultures.

[5] = system: Human bone marrow cells (BFU-E); assay: Human bone marrow toxicity, BFU-E clonogenic assay; type: cell-based; conditions: human bone marrow colony formation, 14 to 18 days
Description: as §1

[6] = Cytotoxicity assay (sulforhodamine B, CC50), Human Hepatoma; type: cell-based; conditions: human; for EC50 at 4 days: Table 13; for CC50 at 4 days: 4 days incubation
Procedure: (§2) Cells were seeded at a rate of between 5×10^3 and 5×10^4/well into 96-well plates in growth medium overnight at 37° C. in a humidified CO2 (5%) atmosphere. New growth medium containing serial dilutions of the drugs was then added. After incubation for 4 days, cultures were fixed in 50% TCA and stained with sulforhodamineB. The optical density was read at 550 nm. The cytotoxic concentration was expressed as the concentration required to reduce the cell number by 50% (CC50).

BVDV (strain NADL) = assay: Cell Protection Assay (CPA); type: cell-based, Bovine Viral Diarrhea virus
Procedure: The assay was performed essentially as described by Baginski, S. G.; Pevear, D. C.; Seipel, M.; Sun, S. C. C.; Benetatos, C. A.; Chunduru, S. K.; Rice, C. M. and M. S. Collett “Mechanism of action of a pestivirus antiviral compound” PNAS USA 2000, 97(14), 7981-7986. MDBK cells (ATCC) were seeded onto 96-well culture plates (4,000 cells per well) 24 hours before use. After infection with BVDV (strain NADL, ATCC) at a multiplicity of infection (MOI) of 0.02 plaque forming units (PFU) per cell, serial dilutions of test compounds were added to both infected and uninfected cells in a final concentration of 0.5% DMSO in growth medium. Each dilution was tested in quadruplicate. Cell densities and virus inocula were adjusted to ensure continuous cell growth throughout the experiment and to achieve more than 90% virus-induced cell destruction in the untreated controls after four days post-infection. After four days, plates were fixed with 50% TCA and stained with sulforhodamine B. The optical density of the wells was read in a microplate reader at 550 nm. The 50% effective concentration (EC50) values were defined as the compound concentration that achieved 50% reduction of cytopathic effect of the virus. FIGS. 4 and 5 provide a graphical illustration of the methodology used to arrive at the 50% effective concentration (EC50) values for β-D-2′-CH3-riboG and ribavirin. FIG. 6 compares the results of the CPA for β-D-2′-CH3-riboG, β-D-2′-CH3-riboC, riboU, β-D-2′-CH3-riboA and ribavirin

BVDV = assay: Plaque Reduction Assay; type: cell-based, Bovine Viral Diarrhea virus
Procedure: For each compound the effective concentration was determined in duplicate 24-well plates by plaque reduction assays. Cell monolayers were infected with 100 PFU/well of virus. Then, serial dilutions of test compounds in MEM supplemented with 2% inactivated serum and 0.75% of methyl cellulose were added to the monolayers. Cultures were further incubated at 37° C. for 3 days, then fixed with 50% ethanol and 0.8% Crystal Violet, washed and air-dried. FIG. 7 is a graphical illustration of the results from the Plaque Reduction Assay. FIG. 8 is an image of BVDV plaque formation in the presence of increasing concentrations of β-D-2′-CH3-riboU.

BVDV (NADL strain) = assay: Yield Reduction Assay; type: cell-based, Bovine Viral Diarrhea virus
Procedure: The assay was performed as described by Baginski, S. G.; Pevear, D. C.; Seipel, M.; Sun, S. C. C.; Benetatos, C. A.; Chunduru, S. K.; Rice, C. M. and M. S. Collett “Mechanism of action of a pestivirus antiviral compound” PNAS USA 2000, 97(14), 7981-7986, with minor modifications. Briefly, MDBK cells were seeded onto 24-well plates (2×10^5 cells per well) 24 hours before infection with BVDV (NADL strain) at a multiplicity of infection (MOI) of 0.1 PFU per cell. Serial dilutions of test compounds were added to cells in a final concentration of 0.5% DMSO in growth medium. Each dilution was tested in triplicate. After three days, cell cultures (cell monolayers and supernatants) were lysed by three freeze-thaw cycles, and virus yield was quantified by plaque assay. Briefly, MDBK cells were seeded onto 6-well plates (5×10^5 cells per well) 24 h before use. Cells were inoculated with 0.2 mL of test lysates for 1 hour, washed and overlaid with 0.5% agarose in growth medium. After 3 days, cell monolayers were fixed with 3.5% formaldehyde and stained with 1% crystal violet (w/v in 50% ethanol) to visualize plaques. FIG. 9 is a graphical illustration of the results from the Yield Reduction Assay. FIG. 8 is an image of BVDV yield reduction in the presence of increasing concentrations of β-D-2′-CH3-riboC.

in vitro [7] = conditions: cattle
HepG2 cells = assay: Mitochondria toxicity assay (L-lactic acid assay); type: cell-based; conditions: 4 day drug exposure
Procedure: HepG2 cells were cultured in 12-well plates as described above and exposed to various concentrations of drugs as taught by Pan-Zhou X-R, Cui L, Zhou X-J, Sommadossi J-P, Darley-Usmer V M. “Differential effects of antiretroviral nucleoside analogs on mitochondrial function in HepG2 cells” Antimicrob Agents Chemother 2000; 44:496-503. Lactic acid levels in the culture medium after 4 day drug exposure was measured using a Boehringer lactic acid assay kit. Lactic acid levels were normalized by cell number as measured by hemocytometer count.

[8] = Cytotoxicity assay (sulforhodamine B, CC50), MDBK; type: cell-based; conditions: cattle; MDBK cells, 4 days incubation
Procedure: as §2

[9] = Bovine viral diarrhea virus isolates and strains, read-out: Comparative Antiviral Activity EC50 BVDV
[10] = Yellow fever virus, read-out: Comparative Antiviral Activity EC50 YFV
[11] = Huh7 cells (human hepatoma), Huh7 cells
[12] = Bovine viral diarrhea virus isolates and strains, 96 h, MDBK cells infected with BVDV, 50% reduction of cytopathic effect, four days, read-out: EC50
[13] = Bovine viral diarrhea virus isolates and strains, Table 13, BVDV, read-out: Cell Protection (EC50)
[14] = Bovine viral diarrhea virus isolates and strains, Table 13, BVDV, 90% virus suppression, read-out: Plaque Reduction (EC90)
[15] = Bovine viral diarrhea virus isolates and strains, Table 13, BVDV

For `C[C@@]1(n2cnc3c(N)ncnc32)O[C@H](CO)[C@H](O)C1O` (stereo partly drawn) [β-D-1′-CH3-riboA, 1′-C-methylriboadenine], the EC50 [1, 9] was 10 µM, the EC50 (YFV-17D; [10]) was 7 µM and the EC50 [2] was 51 µM. It also gave an EC50 (VSV) of over 100 µM, an EC50 (HIV-1) of over 18 µM and a CC50 (in vitro [3]) of over 100 µM. It also gave a CC50 (in vitro [3]; African green monkey) of over 100 µM, a CC50 (in vitro [3]; hamster) of 200 µM and a CC50 (in vitro [3]; human) of 18 µM.
`CC1(O)[C@@H](O)[C@@H](CO)O[C@H]1n1cnc2c(N)ncnc21` (stereo partly drawn) [β-D-2′-CH3-riboA, 2′-C-methylriboadenine] gave an IC50 ([4]; Homo sapiens, CFU-GM) of over 100 µM, an IC50 ([5]; Bone marrow cell) of over 100 µM and an EC50 at 4 days [6, 11] of 50 µM. It also gave an EC50 (BVDV (strain NADL); [12]) of 2 µM, an EC50 (BVDV (strain NADL); [13]) of 2 µM and an EC90 (BVDV; Bovine viral diarrhea virus isolates and strains, 72 h, concentration to obtain 90% virus suppression, 3 days, read-out: EC90) of under 3 µM. The EC90 (BVDV; [14]) was under 3 µM, the “Conc. for 6-log Reduction” value (BVDV (NADL strain)) was 9 μM and the “Yield Reduction 6 log10 reduction (μM)” value (BVDV (NADL strain)) was 9 μM. The EC90 (BVDV (NADL strain); [15]) was under 2 µM, the EC50 [1, 9] was 0.1 µM and the EC50 (YFV-17D; [10]) was 0.2 µM. The EC50 [2] was 5 µM, the EC50 (VSV) was over 100 µM and the EC50 (HIV-1) was over 6.6 µM. The CC50 (in vitro [7]) was 20 µM, the CC50 (in vitro [3]) was 75 µM and the CC50 (in vitro [3]; African green monkey) was 22 µM. For the same compound, the CC50 (in vitro [3]; hamster) was 22 µM and the CC50 (in vitro [3]; human) was 6.6 µM.
`C[C@@]1(O)[C@H](O)[C@@H](CO)O[C@H]1n1ccc(N)nc1=O` [β-D-2′-CH3-riboC] showed an IC50 ([4]; human bone marrow colony formation, 14 to 18 days) of over 10 µM, an IC50 [5] of over 10 µM and a lactate (HepG2 cells; Conc. 1 μM) of 2.52 mg/10^6 cell. For the same compound, the “lactate % of Control” value (HepG2 cells; Conc. 1 μM) was 115.3%, the lactate (HepG2 cells; Conc. 10 μM) was 2.36 mg/10^6 cell and the “lactate % of Control” value (HepG2 cells; Conc. 10 μM) was 107.9%. For the same compound, the lactate (HepG2 cells; Conc. 50 μM) was 2.26 mg/10^6 cell, the “lactate % of Control” value (HepG2 cells; Conc. 50 μM) was 103.4% and the lactate (HepG2 cells; Conc. 100 μM) was 2.21 mg/10^6 cell. The “lactate % of Control” value (HepG2 cells; Conc. 100 μM) was 101.2%, the EC50 (BVDV (strain NADL); read-out: Cell Protection (EC50)) was 2 µM and the EC50 (BVDV (strain NADL); read-out: EC50) was 2 µM. The EC90 (BVDV; read-out: EC90) was under 9 µM, the EC90 (BVDV; read-out: Plaque Reduction (EC90)) was under 9 µM and the “Conc. for 6-log Reduction” value (BVDV (NADL strain)) was 20 μM. For the same compound, the EC90 (BVDV (NADL strain)) was under 4 µM, the “Yield Reduction 6 log10 reduction (μM)” value (BVDV (NADL strain)) was 20 μM and the EC50 ([1]; read-out: BVDV EC50) was 3.7 µM. For the same compound, the EC50 (YFV-17D; Table 12, reduce the plaque number by 50%, YFV-BHK, read-out: YFV EC50) was 70 µM, the CC50 (MDBK cells) was 100 µM and the CC50 (various cell systems) was over 100 µM. For the same compound, the CC50 (various cell systems; read-out: YFV CC50, Table 12, reduce the viability of cells by 50%, YFV-BHK system) was over 100 µM.
With `NC(=O)c1ncn([C@@H]2O[C@H](CO)[C@@H](O)[C@H]2O)n1` [Ribavirin, reference compound] the IC50 ([4]; Homo sapiens, CFU-GM) was about 5 µM, the IC50 ([5]; Bone marrow cell) was about 1 µM and the CC50 at 4 days [8] was 5 µM. It also gave a CC50 at 4 days ([6]; HepG2 cells (human hepatoma), HepG2 cells, read-out: CC50 HepG2) of 150 µM, a CC50 at 4 days ([6]; Huh7 cells (human hepatoma), Huh7 cells, read-out: CC50 Huh7) of 25 µM and an EC50 at 4 days [6, 11] of 20 µM. The EC50 (BVDV (strain NADL); [12]) was over 3 µM, the EC50 (BVDV (strain NADL); [13]) was over 3 µM and the EC90 (BVDV; [14]) was over 200 µM. The “Yield Reduction 6 log10 reduction (μM)” value (BVDV (NADL strain)) was “toxic”, the EC90 (BVDV (NADL strain); [15]) was over 20 µM and the EC50 (YFV-17D; [10]) was 30 µM. For the same compound, the EC50 [2] was over 30 µM, the CC50 (in vitro [7]) was 5 µM and the CC50 (in vitro [3]; African green monkey) was 11 µM. For the same compound, the CC50 (in vitro [3]; hamster) was 50 µM.

From US20180235993A1 (priority 2000, published 2018)
